Data on one compound can be found in patent publication US4250255A, “Assay method for isoenzyme activity” (Eastman Kodak Company, priority 1977, dated 1981).

The structures appear in SMILES notation. Bounds are passed on as bounds.

One experiment concerns LD1 and LD5. The experiment is described as follows: Screening of amphiphiles for ability to discriminate between LD1 and LD5.
A further experiment relates to human LD1, LD2 and LD3. The experiment is described as follows: LDH assay with human serum sample containing LD1, LD2 and LD3. The format is biochemical. As to conditions: CTAB 0.002-0.004 M; 25 μl serum; FIG. 13. As for the experimental part: (§1) The assay for LDH activity in both the absence and presence of surfactant was conducted as follows. […] The resulting solution contains approximately 5 units/ml. […] To the equilibrated solution […]. of the enzyme solution was added, and the cuvette was rapidly shaken while covering the top of the cuvette with a small piece of Parafilm® and placed back into the spectrophotometer.
(§2) Pooled human serum, kept frozen until ready for use, was raised to pH 11.5 until all LDH activity was destroyed. The pH was then adjusted to 7.4 and the serum was again assayed for LDH activity to ensure that no LDH had been reactivated. A specific human LDH isoenzyme (obtained from liver homogenate or red blood cell) was then added to the pool to give an enzyme concentration of ~100 U/l. The spiked serum samples were refrigerated between uses and respiked when necessary. Fresh serum was prepared weekly.
(§3) 8. The assay method used is the same as described above for Examples 1-12, except that the test samples consisted of 25-30 μl of serum instead of 100 μl of aqueous enzyme solution.

Experiment [1] concerns the target T1, human LD5 (Homo sapiens, UniProt P00338).
T1 construct: A specific human LDH isoenzyme (obtained from liver homogenate or red blood cell); from tissue; host or cells: human liver homogenate or red blood cell
The experiment is described as follows: LDH assay with human enzyme-containing serum. Format: biochemical. As for the experimental part: as §1, §2, §3

Another experiment deals with T2, human LD1 (Homo sapiens, UniProt P07195).
T2 construct: A specific human LDH isoenzyme (obtained from liver homogenate or red blood cell); from tissue; host or cells: human liver homogenate or red blood cell
The experiment is described as follows: LDH assay with human enzyme-containing serum. Format: biochemical. The note with it: 2.5 mM CTAB; pH 7.8; 14% protein. As for the experimental part: as §1, §2, §3

A further experiment addresses T3, human LD4 (Homo sapiens, UniProt P00338+P07195).
T3 construct: A specific human LDH isoenzyme (obtained from liver homogenate or red blood cell); from tissue; host or cells: human liver homogenate or red blood cell
The experiment is described as follows: LDH assay with human enzyme-containing serum. The format is biochemical. As for the experimental part: as §1, §2, §3

Another experiment concerns the target T4, human LD2 (Homo sapiens, UniProt P00338+P07195).
T4 construct: A specific human LDH isoenzyme (obtained from liver homogenate or red blood cell); from tissue; host or cells: human liver homogenate or red blood cell
The experiment is described as follows: LDH assay with human enzyme-containing serum. Format: biochemical. The note with it: 2.5 mM CTAB; pH 7.8; 14% protein. As for the experimental part:
as §1, §2, §3

The test system of experiment [2] is human LD5. The experiment is described as follows: LDH assay with human enzyme-containing serum. The format is biochemical. As to conditions: pH 7.4; FIG. 15. As for the experimental part:
as §1, §2, §3

Experiment [3] concerns LD5. The experiment is described as follows: LDH activity assay with amphiphile, LDH isoenzymes. The format is biochemical, porcine. The note with it: even at 10 mM; LD5 from rabbit and hog show almost identical profiles; FIG. 5. The protocol: (§4) 3. Beef heart LDH (Sigma Chemical Co., Type III), rabbit muscle LDH (Sigma Chemical Co., Type V) and porcine LDH, LD1, LD2, LD3, LD4 and LD5 in the form of ammonium sulfate suspensions were used for these examples.
as §1
(§5) Amphiphile solutions were prepared by weighing out a given amount of amphiphile, e.g., 100 mg, and preparing a stock solution in 30 mM sodium phosphate buffer in 100 ml. volumetric flask. Solutions of lower amphiphile concentration were prepared by making the appropriate dilutions from the stock solution.

Experiment [4] concerns LD1. The experiment is described as follows: LDH activity assay with amphiphile, LDH isoenzymes. Format: biochemical, porcine. The note with it: about 10 mM CTAB; FIG. 5. The protocol:
as §4, §1, §5

Another experiment addresses T5, cMDH (Sus scrofa, UniProt P11708).
T5 construct: Porcine cMDH and mMDH were used as ammonium sulfate suspensions
The experiment is described as follows: Assay for MDH (oxalacetic acid + NADH, 340 nm). The format is biochemical, porcine. As for the experimental part: (§6) 1. Porcine cMDH and mMDH were used as ammonium sulfate suspensions. Typically, 5 μl of the enzyme stock solutions were diluted to 10 ml with 30 mM phosphate buffer, pH 7.4, prior to use. The resulting enzyme solutions were stored in ice water; 100 μl aliquots were withdrawn for assay except where another amount is specified.
(§7) The assay is based on conversion of oxalacetic acid to malate in the presence of NADH and MDH. The assay was made [formula] in 30 mM phosphate buffer, at ambient temperature, with and without appropriate surfactant concentrations, and contained 0.17 mM OAA and 0.13 mM NADH. The reaction was followed by monitoring the decrease in absorbance at 340 nm using either a Beckman 25 or Cary 118 spectrophotometer. The OAA solutions were stored over ice to prevent hydrolysis to pyruvic acid.

A further experiment has as its target T6, mMDH (Sus scrofa, UniProt P00346).
T6 construct: Porcine cMDH and mMDH were used as ammonium sulfate suspensions
T6 sequence (P00346 25-338): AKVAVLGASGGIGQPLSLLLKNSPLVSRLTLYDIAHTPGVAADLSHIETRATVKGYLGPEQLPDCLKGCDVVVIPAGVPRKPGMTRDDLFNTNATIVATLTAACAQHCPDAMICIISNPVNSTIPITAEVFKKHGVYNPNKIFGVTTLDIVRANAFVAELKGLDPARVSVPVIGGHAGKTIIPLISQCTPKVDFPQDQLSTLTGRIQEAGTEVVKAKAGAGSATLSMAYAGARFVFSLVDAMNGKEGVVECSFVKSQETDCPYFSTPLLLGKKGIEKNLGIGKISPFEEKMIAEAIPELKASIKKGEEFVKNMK
The experiment is described as follows: Assay for MDH (oxalacetic acid + NADH, 340 nm). Format: biochemical, porcine. The protocol: as §6, §7

Experiment [5] has as its target LD1 (Sus scrofa, UniProt P00336). The experiment is described as follows: Effect of cationic amphiphiles on the activity of LDH isoenzymes (Table 1). The format is biochemical. The note with it: 30 mM sodium phosphate buffer pH 7.4, 25° C.; read-out: Amphiphile conc. Req'd for 50% Inactivation of Specified Isoenzyme (LD1). The protocol: as §1, §5
A number of cationic amphiphiles were investigated for specific inactivation of LD1 in the presence of LD5 and these compounds are listed in Table 1.

The target in experiment [6] is LD5 (Sus scrofa, UniProt P00339). The experiment is described as follows: LDH activity assay with amphiphile, LDH isoenzymes. Format: biochemical, porcine. Further details: LD5 from two different species, i.e., rabbit muscle and hog muscle; from tissue; host or cells: hog muscle. As to conditions: pH 7.4, read-out: activity of LD5 in CTAB, % of the buffer value. The protocol: as §4, §1, §5

Experiment [7] has as its system isoenzymes of creatinine phosphokinase (CPK). The experiment is described as follows: Conventional coupled CPK assay (hexokinase, glucose-6-phosphate dehydrogenase). The format is biochemical. As to conditions: conventional assay with coupled reactions, hexokinase and glucose-6-phosphate dehydrogenase. The source says:
Of course, the particular amphiphile used and the concentration at which it is used will depend upon the particular isoenzyme being assayed. Not every amphiphile will have a discriminatory effect on the activity of isoenzymes in each isoenzyme system.

Where [8] appears, read: 2.5 mM CTAB, pH 7.8, 14% protein.
Where [9] appears, read: rate measurements after 2 minutes, FIG. 18.

Procedure for LD1 and LD5: A series of solutions was prepared covering a range of concentrations for each amphiphile to be tested. The activities of both LD1 and LD5 were determined in the presence of the various concentrations of each amphiphile and compared with enzyme activities in buffer (relative activity).
Enzyme activity in the presence and absence of amphiphile was measured by the following procedure: Stock solutions of NADH (4 mM) and pyruvate (40 mM) were prepared daily in 30 mM sodium phosphate buffer, pH 7.4. Enzyme solutions were prepared daily by withdrawing 5 μl of the stock enzyme solutions with a Hamilton syringe and diluting to 5 ml with 30 mM sodium phosphate buffer. (The resulting solution contains approximately 5 U of enzyme/ml.) The enzyme assay was run by pipetting 2.7 ml of buffer or buffer surfactant solution into a 10 mm path length quartz cuvette, and 100 μl each of NADH and pyruvate stock solutions were added. […] Enzyme solution was added with good mixing; the absorbance decrease at 340 nm was measured as a function of time. The rate of the reaction was determined by measuring the slope of the initial absorbance decrease, i.e., within the first 50 seconds of the reaction.

For `CCCCCCCCCCCCCCCC[N+](C)(C)C.[Br-]` [CTAB, hexadecyltrimethylammonium bromide], the “discrimination of LDH isoenzymes” value in the experiment with LD1 and LD5 is on record as “excellent discriminators”. Moreover, the “activity of human serum sample containing LD1, LD2 and LD3” value in the experiment with human LD1, LD2 and LD3 was “completely inactivated”. Also, on human LD5 [1] (setting [8]), the “human LD5 activity” value is given as “fully active”. Moreover, at human LD5 [1] (CTAB 0.002-0.004 M, 25 μl serum, FIG. 13), the “retained activity of human LD5” value is listed as “at least 60%”. On human LD5 [1] (read-out: human LD5 activity), the activity at 3000 µM was > 100%. For the same compound, the “human LD1 activity” value at human LD1 was “completely inactivated”. For the same compound, the “human LD4 activity” value at human LD4 (setting [8]) was “fully active”; on human LD4 (3 mM CTAB in 14% protein, pH 7.75-7.85, 30 μl serum), “completely inactivated”. Also, the “human LD2 activity” value at human LD2 is “completely inactivated”. Besides, the “discrimination between human LD5 and LD4” value with human LD5 [2] is given as “inadequate discrimination”. Moreover, in the experiment with LD5 [3], the “control LD5 activity lost in CTAB solutions” value is recorded as “No more than 30%”. For the same compound, the “LD1 susceptibility to inactivation at high surfactant concentrations” value with LD1 [4] is “less susceptible to inactivation”. In addition, on cMDH (0.3 mM CTAB, initial reaction rates, FIG. 16), the cMDH activity result was “essentially completely inactivated”. Besides, the “cMDH inactivation with increased exposure time” value at cMDH (setting [9]) is given as “more effectively inactivates cMDH”. Besides, the remaining activity at 300 µM at mMDH (pH 7.4, 0.3 mM CTAB, initial reaction rates, FIG. 16, read-out: mMDH activity relative to a buffer control) worked out at 100%. For the same compound, the “effect on mMDH with increased exposure time” value on mMDH (setting [9]) is recorded as “no effect”. Further, the IC50 on LD1 [5] was determined as 900 µM. Moreover, at LD5 [6], the activity at 275 µM was 90 to 95%. Besides, the “discriminatory effect on the activities of the isoenzymes of CPK” value in [7] is on record as “do not appear to have any discriminatory effect”.
